{"source": "patent US12318373B2", "about": "“Methods of treating gastrointestinal stromal tumors” (Deciphera Pharmaceuticals, LLC, priority 2019, dated 2025)", "key": {"[1]": {"tested_on": "patients with advanced GIST", "experiment": "Example 2/6: safety, treatment-emergent adverse events", "assay_type": "in vivo, human", "experimental": "This study was a randomized (2:1), double-blind, placebo-controlled, international, multicenter study to evaluate the safety, tolerability, and efficacy of ripretinib compared to placebo in 129 patients with advanced GIST whose previous therapies have included at least imatinib, sunitinib, and regorafenib. Patients were randomized 2:1 to either 150 mg of ripretinib or placebo once daily. The primary efficacy endpoint is progression-free survival (PFS) as determined by independent radiologic review using modified Response Evaluation Criteria in Solid Tumors (RECIST). Secondary endpoints as determined by independent radiologic review using modified RECIST include Objective Response Rate (ORR), Time to Tumor Progression (TTP) and Overall Survival (OS).\nGrade 3 or 4 treatment-emergent adverse events (TEAEs) occurred in 42 (49%) patients on the ripretinib arm compared to 19 (44%) on the placebo arm. Grade 3 or 4 TEAEs>5% of patients in the ripretinib arm were anemia (9%; n=8), abdominal pain (7%; n=6) and hypertension (7%; n=6). Grade 3 or 4 TEAEs>5% of patients in the placebo arm were anemia (14%; n=6). Table 1 lists TEAEs>15% in the ripretinib arm compared to placebo.\nThe safety of ripretinib and the impact of alopecia and palmar-plantar erythrodysesthesia (PPES) on patient-reported outcomes (PROs) of patients treated in the study described in Example 2 herein are described. […] When stratified by alopecia and PPES, patient reported assessments of function, overall health, and overall quality of life were maintained over time."}, "[2]": {"tested_on": "patients with advanced GIST", "experiment": "Example 2: patient reported outcomes (EQ-5D-5L VAS, EORTC QLQ-C30)", "assay_type": "in vivo, human", "conditions": "150 mg QD", "experimental": "Patient reported outcomes were assessed by EQ-5D-5L, which provides a visual analogue scale (VAS), and EORTC QLQ-C30, which provides physical function and role function scales. The EQ-5D-5L VAS (or EQ-VAS) records the respondent's overall current health on a vertical visual analogue scale and provides a quantitative measure of the patient's perception of overall health. These patient outcomes were reported across 28-day cycles of receiving 150 mg QD ripretinib or placebo.\nThe EORTC QLQ-C30 is an assessment of function and symptoms of therapy by cancer patient, and is not specific to any cancer. The EORTC QLQ-C30 is a 30-question plus one global health status, including 5 functional scales, 3 symptom scales and a global health status."}, "[3]": {"tested_on": "GIST", "experiment": "Example 4: phase 1 study, efficacy by line of therapy at 150 mg QD", "assay_type": "in vivo, human", "experimental": "Efficacy and safety results from the escalation and expansion phases of a phase 1 study for patients with GIST treated at ripretinib 150 mg QD as the starting dose in 28-day cycles are presented. Local, investigator-assessed Response Evaluation Criteria in Solid Tumors (RECIST 1.1) response assessments were performed every 2 cycles, and patients in the expansion cohorts who progressed per RECIST 1.1 were allowed to dose escalate to 150 mg BID.\n142 patients with GIST in the escalation and expansion phases were treated at 150 mg QD dose. Number of patients by line of therapy were as follows: 31 2nd line, 28 3rd line, and 83≥4th line patients. 135 patients (95.1%) had KIT-mutant GIST, and 7 patients (4.9%) had PDGFRA-mutant GIST.\nFor example, the confirmed-only complete response (CR), partial response (PR), stable disease, and progressive disease are presented in Table 4. The objective response rate data in Table 4 relates to the proportion of patients with CR+PR. The median PFS data in Table 4 refers to progression-free survival per investigator assessment, by line of therapy."}, "[4]": {"experiment": "Example 8: coadministration with proton-pump inhibitor (pantoprazole), exposure", "assay_type": "in vivo", "experimental": "The effect of a proton-pump inhibitor on the exposure of ripretinib was evaluated."}, "[5]": {"experiment": "Example 9: food effect (high-fat meal) on exposure", "assay_type": "in vivo", "experimental": "The effect of a high-fat breakfast on ripretinib and Compound A exposure was evaluated. A high fat meal consisted of approximately 150, 250, and 500-600 calories from protein, carbohydrate, and fat, respectively. […] Therefore, ripretinib may be taken with or without food at approximately same time each day."}, "[6]": {"conditions": "150 mg dose with a high-fat meal"}}, "data": [{"smiles": "CCn1c(=O)c(-c2cc(NC(=O)Nc3ccccc3)c(F)cc2Br)cc2cnc(NC)cc21", "note": "[ripretinib]", "values": [{"measurement": "Alopecia in females (females vs males)", "setting": "[1]; female, human, in vivo", "value": 56.8, "unit": "%"}, {"measurement": "Grade 3 or 4 abdominal pain: patients, %", "setting": "[1]; human, in vivo", "value": 7, "unit": "%"}, {"measurement": "Grade 3 or 4 abdominal pain: patients, number", "setting": "[1]; human, in vivo", "value": 6}, {"measurement": "Grade 3 or 4 anemia: patients, number", "setting": "[1]; human, in vivo", "value": 8}, {"measurement": "Grade 3 or 4 hypertension: patients, %", "setting": "[1]; human, in vivo", "value": 7, "unit": "%"}, {"measurement": "Grade 3 or 4 hypertension: patients, number", "setting": "[1]; human, in vivo", "value": 6}, {"measurement": "Patients with a TEAE leading to dose interruption", "setting": "[1]; human, in vivo", "value": 23.5, "unit": "%"}, {"measurement": "Patients with a TEAE leading to dose reduction", "setting": "[1]; human, in vivo", "value": 7.1, "unit": "%"}, {"measurement": "Grade 3/4 alopecia", "setting": "[1]; in vivo", "value": "no patients"}, {"measurement": "Grade 3 PPES", "setting": "[1]; in vivo", "value": "no patients"}, {"measurement": "Overall safety and tolerability profile", "setting": "[1]; in vivo", "value": "favorable overall safety and tolerability profile"}, {"measurement": "Serious adverse events of alopecia or PPES", "setting": "[1]; in vivo", "value": "no serious adverse events"}, {"measurement": "TEAEs during the crossover period", "setting": "[1]; in vivo", "value": "no safety concerns"}, {"measurement": "Alopecia in males (females vs males)", "setting": "[1]; male, human, in vivo", "value": 43.2, "unit": "%"}, {"measurement": "Patients with a TEAE leading to death", "setting": "[1]; ripretinib arm", "value": 5.9, "unit": "%"}, {"measurement": "EORTC QLQ-C30 role function score, average improvement from baseline to C2D1", "setting": "[2]; 70 patients", "value": 3.5}, {"measurement": "EQ-VAS score, average improvement from baseline to Cycle 2, Day 1 (C2D1)", "setting": "[2]; 70 patients", "value": 3.7}, {"measurement": "EORTC QLQ-C30 physical function score, average improvement from baseline to C2D1", "setting": "[2]; 71 patients", "value": 1.6}, {"measurement": "EORTC QLQ-C30 Question C29 (overall health) score improvement", "setting": "[2]; scale 1 to 7, 70 patients", "value": 0.20}, {"measurement": "EORTC QLQ-C30 Question C30 (overall quality of life) score improvement", "setting": "[2]; scale 1 to 7, 70 patients", "value": 0.28}, {"measurement": "Duration of response, Median", "setting": "[3]; 150 mg QD, 2nd Line", "value": 80, "unit": "weeks"}, {"measurement": "Best response (confirmed only): PR, %", "setting": "[3]; 150 mg QD, 2nd Line (n = 31)", "value": "(19.4) %"}, {"measurement": "Best response (confirmed only): Progressive disease, %", "setting": "[3]; 150 mg QD, 2nd Line (n = 31)", "value": "(12.9) %"}, {"measurement": "Best response (confirmed only): Stable disease, %", "setting": "[3]; 150 mg QD, 2nd Line (n = 31)", "value": "(67.7) %"}, {"measurement": "PFS, Median", "setting": "[3]; 150 mg QD, 2nd Line (n = 31), investigator assessment", "value": 46.4, "unit": "weeks"}, {"measurement": "Duration of response: Number of events", "setting": "[3]; 150 mg QD, 2nd Line, n = 6 responders", "value": 3}, {"measurement": "Best response (confirmed only): PR, %", "setting": "[3]; 150 mg QD, 3rd Line (n = 28)", "value": "(14.3) %"}, {"measurement": "Best response (confirmed only): Progressive disease, %", "setting": "[3]; 150 mg QD, 3rd Line (n = 28)", "value": "(21.4) %"}, {"measurement": "Best response (confirmed only): Stable disease, %", "setting": "[3]; 150 mg QD, 3rd Line (n = 28)", "value": "(64.3) %"}, {"measurement": "PFS, Median", "setting": "[3]; 150 mg QD, 3rd Line (n = 28), investigator assessment", "value": 36.3, "unit": "weeks"}, {"measurement": "Duration of response: Number of events", "setting": "[3]; 150 mg QD, 3rd Line, n = 4 responders", "value": 1}, {"measurement": "Duration of response, Median", "setting": "[3]; 150 mg QD, ≥4th Line", "value": 76.1, "unit": "weeks"}, {"measurement": "Best response (confirmed only): No response assessment, %", "setting": "[3]; 150 mg QD, ≥4th Line (n = 83)", "value": "(6.0) %"}, {"measurement": "Best response (confirmed only): Not evaluable, %", "setting": "[3]; 150 mg QD, ≥4th Line (n = 83)", "value": "(1.2) %"}, {"measurement": "Best response (confirmed only): PR, %", "setting": "[3]; 150 mg QD, ≥4th Line (n = 83)", "value": "(7.2) %"}, {"measurement": "Best response (confirmed only): Progressive disease, %", "setting": "[3]; 150 mg QD, ≥4th Line (n = 83)", "value": "(26.5) %"}, {"measurement": "Best response (confirmed only): Stable disease, %", "setting": "[3]; 150 mg QD, ≥4th Line (n = 83)", "value": "(59.0) %"}, {"measurement": "PFS, Median", "setting": "[3]; 150 mg QD, ≥4th Line (n = 83), investigator assessment", "value": 23.9, "unit": "weeks"}, {"measurement": "Duration of response: Number of events", "setting": "[3]; 150 mg QD, ≥4th Line, n = 6 responders", "value": 3}, {"measurement": "PFS of second and third-line patients with Exons 9, 11, 13, or 17 KIT mutations", "setting": "[3]; FIG. 27", "value": "comparable PFS"}, {"measurement": "Clinical benefit after dose escalation to 150 mg BID (PFS1 vs PFS2)", "setting": "[3]; regardless of line of therapy, investigator assessment, FIGS. 25A, 25B", "value": "additional clinical benefit"}, {"measurement": "Effect on ripretinib exposure", "setting": "[4]; 40 mg QD pantoprazole with 150 mg QD ripretinib", "value": "did not affect"}, {"measurement": "Difference in plasma exposure", "setting": "[4]; ripretinib coadministered with pantoprazole", "value": "No clinically significant differences"}, {"measurement": "AUC0-24h higher by", "setting": "[5]; [6]", "value": 30, "unit": "%"}, {"measurement": "Cmax higher by", "setting": "[5]; [6]", "value": 22, "unit": "%"}, {"measurement": "Clinical significance of the food effect", "setting": "[5]; based on exposure-response analysis", "value": "not considered to be clinically significant"}]}]}
